What was measured:
Blood = assay: Antiinflammatory activity in human whole blood assessed as inhibition of LPS-induced TNFalpha release treated for 45 mins before LPS challenge measured after 6 hrs by ELISA; format: functional, tissue-based
PBMC = assay: Antiinflammatory activity in human PBMC assessed as inhibition of LPS-induced TNFalpha release treated for 5 mins before LPS challenge measured after 4 hrs by ELISA; format: functional, cell-based
[1] = molecular target: T1, Inhibitor of nuclear factor kappa-B kinase subunit beta (Homo sapiens, UniProt O14920); assay: Inhibition of human IKK2-mediated GST-IkappaBalpha protein fusion phosphorylation
T1 sequence (O14920 whole entry): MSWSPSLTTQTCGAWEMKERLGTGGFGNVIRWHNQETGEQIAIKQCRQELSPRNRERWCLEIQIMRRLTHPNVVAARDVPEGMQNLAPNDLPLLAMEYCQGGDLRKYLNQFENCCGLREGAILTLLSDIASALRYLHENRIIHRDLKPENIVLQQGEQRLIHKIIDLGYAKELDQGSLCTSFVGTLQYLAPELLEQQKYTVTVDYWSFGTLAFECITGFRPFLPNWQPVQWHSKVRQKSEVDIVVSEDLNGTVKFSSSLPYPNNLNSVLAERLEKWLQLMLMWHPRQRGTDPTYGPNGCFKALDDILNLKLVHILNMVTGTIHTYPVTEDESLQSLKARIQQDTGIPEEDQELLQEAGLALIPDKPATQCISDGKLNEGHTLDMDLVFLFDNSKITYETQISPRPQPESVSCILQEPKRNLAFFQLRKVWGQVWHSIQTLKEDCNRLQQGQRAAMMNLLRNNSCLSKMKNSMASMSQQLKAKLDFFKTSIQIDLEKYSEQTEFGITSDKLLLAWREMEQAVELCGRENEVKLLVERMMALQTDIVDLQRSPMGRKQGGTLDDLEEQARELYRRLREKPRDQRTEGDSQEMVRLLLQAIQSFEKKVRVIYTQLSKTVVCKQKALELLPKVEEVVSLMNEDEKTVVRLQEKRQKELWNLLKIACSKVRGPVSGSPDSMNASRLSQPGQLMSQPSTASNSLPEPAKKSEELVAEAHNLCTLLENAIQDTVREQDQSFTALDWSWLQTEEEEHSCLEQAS

[2] = Cmax in Lewis rat at 30 mg/kg, po; format: ADME, organism-based; parameters: dose 30 mg/kg, route oral; settings: in vivo
[3] = AUC in Lewis rat at 30 mg/kg, po; format: ADME, organism-based; parameters: dose 30 mg/kg, route oral; settings: plasma

Row | Compound | IC50 (Blood; Homo sapiens, Blood) [nM] | IC50 (PBMC; Homo sapiens, PBMC) [nM] | IC50 [1] [nM] | IC50 (Blood) [nM] | IC50 (PBMC; pbmc) [nM] | Cmax [2] [µM] | AUC [3] [µM·h]
1 | CNc1nc2[nH]c(-c3cccc(CNC(=O)C(C)(C)O)n3)cc2c2c1ncn2C | 3400 | 240 | 12 | – | – | – | –
2 | CNc1nc2[nH]c(-c3cccc(NCCOC)n3)cc2c2c1ncn2C | 6400 | 350 | 20 | – | – | – | –
3 | CNc1nc2[nH]c(-c3cccc(CN(C)C(=O)COC)n3)cc2c2c1ncn2C | 3300 | 350 | 19 | – | – | – | –
4 | CNc1nc2[nH]c(-c3cccc(CNC(C)=O)c3)cc2c2c1ncn2C | – | – | 14 | – | – | – | –
5 | CNc1nc2[nH]c(-c3cccc(CNC(=O)CO)n3)cc2c2c1ncn2C | 1800 | 530 | 13 | – | – | – | –
6 | CNc1nc2[nH]c(-c3cccc(N(C)CCOC)n3)cc2c2c1ncn2C | > 25000 | 1900 | 438 | – | – | – | –
7 | CNCC(=O)NCc1cccc(-c2cc3c(nc(NC)c4ncn(C)c43)[nH]2)n1 | 17000 | 130 | 86 | – | – | – | –
8 | CCC(=O)NCc1cccc(-c2cc3c(nc(NC)c4ncn(C)c43)[nH]2)n1 | 6100 | 700 | 44 | – | – | – | –
9 | CNc1nc2[nH]c(-c3cccc(CNC(=O)C(C)(C)C)n3)cc2c2c1ncn2C | 5500 | 310 | 66 | – | – | – | –
10 | CCNc1nc2sc(-c3cccc([C@H](C)NC(C)=O)c3)nc2c2c1ncn2C | 3500 | – | – | – | – | – | –
11 | CNc1nc2[nH]c(-c3cccc(CNC(=O)CCOC)n3)cc2c2c1ncn2C | 3300 | 280 | 12 | – | – | – | –
12 | CNc1nc2[nH]c(-c3cccc(CNC(=O)CCN(C)C)n3)cc2c2c1ncn2C | 1800 | 220 | 5 | – | – | – | –
13 | CNc1nc2[nH]c(-c3cccc(N4CCN(C)CC4)n3)cc2c2c1ncn2C | > 25000 | 1500 | 128 | – | – | – | –
14 | CNc1nc2[nH]c(-c3cccc(CNC(=O)c4csnn4)n3)cc2c2c1ncn2C | 5200 | 230 | 28 | – | – | – | –
15 | CNc1nc2[nH]c(-c3cccc(C(C)NC(C)=O)n3)cc2c2c1ncn2C (single isomer, unassigned; enantiomer 2) | – | – | 9 | 1600 | 300 | – | –
16 | CNc1nc2[nH]c(-c3cc(CNC(C)=O)ccn3)cc2c2c1ncn2C | – | – | 330 | – | – | – | –
17 | CNc1nc2[nH]c(-c3cccc(CNC(=O)CCOC)c3)cc2c2c1ncn2C | 7000 | – | 13 | – | – | 7.8 | 39
18 | CNc1nc2[nH]c(-c3cccc(NC(C)=O)n3)cc2c2c1ncn2C | – | 1900 | 130 | – | – | – | –
19 | CNc1nc2[nH]c(-c3cccc(CN(C)C(C)=O)n3)cc2c2c1ncn2C | 3000 | 230 | 14 | – | – | – | –
20 | CNc1nc2[nH]c(-c3cccc(CNC(=O)c4cnccn4)n3)cc2c2c1ncn2C | 5900 | 290 | 23 | – | – | – | –
21 | CNc1nc2[nH]c(-c3cccc(C(C)NC(C)=O)n3)cc2c2c1ncn2C (single isomer, unassigned) | 1700 | – | 16 | – | 680 | – | –
22 | CNc1nc2[nH]c(-c3cccc(CNC(C)=O)n3)cc2c2c1ncn2C | 1600 | 160 | 19 | – | – | – | –
23 | CNC(=O)N(C)Cc1cccc(-c2cc3c(nc(NC)c4ncn(C)c43)[nH]2)n1 | 1700 | 350 | 5.7 | – | – | – | –
24 | CNc1nc2[nH]c(-c3cccc(CNC(=O)C4(C)CC4)n3)cc2c2c1ncn2C | – | 570 | 41 | – | – | – | –
25 | CNc1nc2[nH]c(-c3cccc(CNC(=O)C4CC4)n3)cc2c2c1ncn2C | 5900 | 280 | 33 | – | – | – | –
26 | CNc1nc2[nH]c(-c3cccc(C4(NC(C)=O)CC4)n3)cc2c2c1ncn2C | 7000 | 400 | 81 | – | – | – | –
27 | CNc1nc2[nH]c(-c3cccc(CNC(=O)CC(C)C)n3)cc2c2c1ncn2C | 15000 | 390 | 26 | – | – | – | –

Reference: ChEMBL document CHEMBL1921674, “Novel tricyclic inhibitors of IKK2: discovery and SAR leading to the identification of 2-methoxy-N-((6-(1-methyl-4-(methylamino)-1,6-dihydroimidazo[4,5-d]pyrrolo[2,3-b]pyridin-7-yl)pyridin-2-yl)methyl)acetamide (BMS-066)” (Bioorg Med Chem Lett, 2011)
